Reference: ChEMBL document CHEMBL1149460, “Pharmacokinetics and metabolism studies on (3-tert-butyl-7-(5-methylisoxazol-3-yl)-2-(1-methyl-1H-1,2,4-triazol-5-ylmethoxy) pyrazolo[1,5-d][1,2,4]triazine, a functionally selective GABA(A) alpha5 inverse agonist for cognitive dysfunction” (Bioorg Med Chem Lett, 2006)

Key:
[1] = target: GABA A receptor alpha-1/beta-1/gamma-2 (Homo sapiens) (UniProt P14867+P18507+P18505); test: Efficacy against human GABA alpha-1 receptor expressed in mouse fibroblast L(tk-) cells by whole cell patch clamp method; format: functional, cell-based
[2] = Efficacy against human GABA alpha-5 receptor expressed in mouse fibroblast L(tk-) cells by whole cell patch clamp method; format: functional
[3] = Efficacy against human GABA alpha-3 receptor expressed in mouse fibroblast L(tk-) cells by whole cell patch clamp method; format: functional
[4] = Binding affinity to GABA alpha5 receptor; set-up: species or system Homo sapiens
[5] = target: GABA-A receptor; anion channel (Rattus norvegicus) (UniProt O09028+P15431+P18506+P18508+P19969+P20236+P23574+P23576+P28471+P28473+P30191+P62813+P63079+P63138+Q91ZM7+Q9ES14); test: Receptor occupancy in vivo by displacement of [3H]Ro 15-1788 binding from rat brain GABAA receptor at 3 mg/kg, ip; format: functional, organism-based; set-up: dose 3 mg/kg
[6] = Efficacy against human GABA alpha-2 receptor expressed in mouse fibroblast L(tk-) cells by whole cell patch clamp method; format: functional
[7] = Oral bioavailability in rhesus; format: ADME, organism-based, Macaca mulatta; conditions: rhesus monkey, in vivo
[8] = Clearance in dog; format: ADME, organism-based, Canis lupus familiaris; conditions: in vivo
[9] = Clearance in rhesus; format: ADME, organism-based, Macaca mulatta; conditions: rhesus monkey, in vivo
[10] = Clearance in rat; format: ADME, organism-based; conditions: in vivo
[11] = Half life in dog; format: ADME, organism-based, Canis lupus familiaris; conditions: in vivo
[12] = Half life in rhesus; format: ADME, organism-based, Macaca mulatta; conditions: rhesus monkey, in vivo
[13] = Half life in rat; format: ADME, organism-based; conditions: in vivo

Efficacy [1] | Ki [4] | Activity [5] | bioavailability [7] | clearance [8] | clearance [9] | clearance [10] | half-life [11] | half-life [12] | half-life [13] | SMILES | Efficacy [2] | Efficacy [3] | Efficacy [6]
-41% | 9.4 nM | 21% |  |  |  |  |  |  |  | Cc1cc(-c2nncc3c(C(C)(C)CO)c(OCc4ncnn4C)nn23)no1 | -40% | -32% | -23%
1% | 700 nM |  |  |  |  |  |  |  |  | Cc1cc(-c2nnc(O)c3c(C(C)(C)C)c(OCc4ncnn4C)nn23)no1 | -47% | -8% | 0%
 | 370 nM |  |  |  |  |  |  |  |  | Cn1ncnc1COc1nn2c(-c3cc(CO)on3)nnc(O)c2c1C(C)(C)C |  |  | 
-11% | 1.1 nM | 12% |  |  |  |  |  |  |  | Cn1ncnc1COc1nn2c(-c3cc(CO)on3)nncc2c1C(C)(C)C | -52% | -15% | -1%
 | > 666 nM |  |  |  |  |  |  |  |  | Cc1cc(-c2nnc(O)c3c(C(C)(C)CO)c(OCc4ncnn4C)nn23)no1 |  |  | 
-16% | 1.4 nM | > 95% | < 2% | 39 mL/min/kg | 33 mL/min/kg | 27 mL/min/kg | 30 min | 18 min | 30 min | Cc1cc(-c2nncc3c(C(C)(C)C)c(OCc4ncnn4C)nn23)no1 | -55% | -9% | 6%
-45% | 21 nM | 8% |  |  |  |  |  |  |  | Cn1ncnc1COc1nn2c(-c3cc(CO)on3)nncc2c1C(C)(C)CO | -44% | -39% | -31%
